# In patent publication US8921362B2, “6,7-dialkoxy quinazoline derivatives and methods of treating drug resistant and other tumors” (Natco Pharma Limited, priority 2008, dated 2014):
# Assays:
# Assay in all cases: KinomeScan
# Assay type in all cases: binding
# Conditions in all cases: read-out: % Ctrl @ 10000 nM
# ABL1(F317I) = molecular target: T1, ABL1(F317I) (Homo sapiens, UniProt P00519, F317I)
# T1 construct: host or cells: E. coli (BL21-derived), T7 phage lysate
# How it was run: (§1)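 Steps: grow kinase-tagged T7 phage in BL21-derived E. coli (MOI ~0.1, 32° C., to lysis); clear lysate; mix with blocked ligand beads and compound; elute; titer by qPCR.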
# ABL1(T315I) = molecular target: T2, ABL1(T315I) (Homo sapiens, UniProt P00519, T315I)
# T2 construct: host or cells: E. coli (BL21-derived), T7 phage lysate
# How it was run: as §1
# ACVR1 = molecular target: T3, ACVR1 (Homo sapiens, UniProt Q04771)
# T3 construct: host or cells: E. coli (BL21-derived), T7 phage lysate
# How it was run: as §1
# ACVR2A = molecular target: T4, ACVR2A (Homo sapiens, UniProt P27037)
# T4 construct: host or cells: E. coli (BL21-derived), T7 phage lysate
# How it was run: as §1
# AKT2 = molecular target: T5, AKT2 (Homo sapiens, UniProt P31751)
# T5 construct: host or cells: E. coli (BL21-derived), T7 phage lysate
# T5 sequence (P31751 whole entry): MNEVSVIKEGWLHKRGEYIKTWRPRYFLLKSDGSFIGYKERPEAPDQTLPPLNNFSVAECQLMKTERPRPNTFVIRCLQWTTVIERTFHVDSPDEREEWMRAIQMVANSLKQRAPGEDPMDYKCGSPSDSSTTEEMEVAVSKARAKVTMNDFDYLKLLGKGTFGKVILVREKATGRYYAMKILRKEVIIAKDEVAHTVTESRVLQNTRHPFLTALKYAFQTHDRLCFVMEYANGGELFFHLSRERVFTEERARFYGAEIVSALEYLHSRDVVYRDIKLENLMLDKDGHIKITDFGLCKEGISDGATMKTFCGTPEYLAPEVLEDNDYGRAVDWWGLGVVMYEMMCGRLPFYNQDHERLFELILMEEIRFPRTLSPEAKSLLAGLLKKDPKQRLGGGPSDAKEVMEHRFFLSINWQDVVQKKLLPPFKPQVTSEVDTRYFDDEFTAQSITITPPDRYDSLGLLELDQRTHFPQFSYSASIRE
# How it was run: as §1
# CAMK1G = molecular target: T6, CAMK1G (Homo sapiens, UniProt Q96NX5)
# T6 construct: host or cells: E. coli host derived from BL21
# T6 sequence (Q96NX5 whole entry): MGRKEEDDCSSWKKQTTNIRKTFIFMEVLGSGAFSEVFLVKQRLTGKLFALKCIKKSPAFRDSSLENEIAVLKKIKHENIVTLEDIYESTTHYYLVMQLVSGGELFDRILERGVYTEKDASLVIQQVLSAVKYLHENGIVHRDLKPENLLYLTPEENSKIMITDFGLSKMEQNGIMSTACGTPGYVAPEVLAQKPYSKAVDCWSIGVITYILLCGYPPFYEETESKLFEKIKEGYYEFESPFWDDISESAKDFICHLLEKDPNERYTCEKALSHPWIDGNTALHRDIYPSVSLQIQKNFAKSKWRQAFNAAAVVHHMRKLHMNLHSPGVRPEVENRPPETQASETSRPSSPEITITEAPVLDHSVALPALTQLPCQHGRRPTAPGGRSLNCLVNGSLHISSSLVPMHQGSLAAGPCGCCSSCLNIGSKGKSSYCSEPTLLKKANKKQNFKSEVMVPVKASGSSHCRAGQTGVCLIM
# How it was run: as §1
# CDK3 = molecular target: T7, CDK3 (Homo sapiens, UniProt Q00526)
# T7 construct: host or cells: T7 phage in E. coli host derived from BL21
# How it was run: as §1
# CSNK1D = molecular target: T8, CSNK1D (Homo sapiens, UniProt P48730)
# T8 construct: host or cells: T7 phage in E. coli host derived from BL21
# How it was run: as §1
# CSNK1G1 = molecular target: T9, CSNK1G1 (Homo sapiens, UniProt Q9HCP0)
# T9 construct: purchased Ambit Biosciences Corp (KinomeScan); host or cells: T7 phage in E. coli host derived from BL21
# How it was run: as §1
# DLK = molecular target: T10, DLK (Homo sapiens, UniProt Q12852)
# T10 construct: purchased Ambit Biosciences Corp (KinomeScan); host or cells: T7 phage in E. coli host derived from BL21
# T10 sequence (Q12852 whole entry): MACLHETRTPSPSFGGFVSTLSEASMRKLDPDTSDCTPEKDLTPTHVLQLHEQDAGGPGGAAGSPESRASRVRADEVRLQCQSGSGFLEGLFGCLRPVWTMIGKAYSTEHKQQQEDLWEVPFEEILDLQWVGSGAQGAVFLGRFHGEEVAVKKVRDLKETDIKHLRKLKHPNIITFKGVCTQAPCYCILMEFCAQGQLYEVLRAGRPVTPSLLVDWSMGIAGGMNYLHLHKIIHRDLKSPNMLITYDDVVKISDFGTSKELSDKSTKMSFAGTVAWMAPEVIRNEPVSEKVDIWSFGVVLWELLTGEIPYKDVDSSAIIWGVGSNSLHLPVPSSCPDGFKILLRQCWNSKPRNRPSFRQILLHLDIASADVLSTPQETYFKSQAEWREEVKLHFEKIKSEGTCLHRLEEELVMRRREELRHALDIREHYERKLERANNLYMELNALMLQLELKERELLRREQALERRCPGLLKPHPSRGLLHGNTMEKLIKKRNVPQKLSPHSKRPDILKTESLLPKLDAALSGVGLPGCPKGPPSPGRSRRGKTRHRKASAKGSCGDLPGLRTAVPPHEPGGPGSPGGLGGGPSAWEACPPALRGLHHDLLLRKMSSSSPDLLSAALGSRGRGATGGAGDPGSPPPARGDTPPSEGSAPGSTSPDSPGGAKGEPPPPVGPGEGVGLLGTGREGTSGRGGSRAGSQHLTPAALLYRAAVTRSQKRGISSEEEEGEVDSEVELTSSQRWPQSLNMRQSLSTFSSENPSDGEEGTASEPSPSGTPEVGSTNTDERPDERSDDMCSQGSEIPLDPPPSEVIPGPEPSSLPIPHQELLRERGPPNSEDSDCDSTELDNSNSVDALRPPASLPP
# How it was run: as §1
# EPHA7 = molecular target: T11, EPHA7 (Homo sapiens, UniProt Q15375)
# T11 construct: purchased Ambit Biosciences Corp; host or cells: T7 phage in E. coli host derived from BL21
# T11 sequence (Q15375 28-998): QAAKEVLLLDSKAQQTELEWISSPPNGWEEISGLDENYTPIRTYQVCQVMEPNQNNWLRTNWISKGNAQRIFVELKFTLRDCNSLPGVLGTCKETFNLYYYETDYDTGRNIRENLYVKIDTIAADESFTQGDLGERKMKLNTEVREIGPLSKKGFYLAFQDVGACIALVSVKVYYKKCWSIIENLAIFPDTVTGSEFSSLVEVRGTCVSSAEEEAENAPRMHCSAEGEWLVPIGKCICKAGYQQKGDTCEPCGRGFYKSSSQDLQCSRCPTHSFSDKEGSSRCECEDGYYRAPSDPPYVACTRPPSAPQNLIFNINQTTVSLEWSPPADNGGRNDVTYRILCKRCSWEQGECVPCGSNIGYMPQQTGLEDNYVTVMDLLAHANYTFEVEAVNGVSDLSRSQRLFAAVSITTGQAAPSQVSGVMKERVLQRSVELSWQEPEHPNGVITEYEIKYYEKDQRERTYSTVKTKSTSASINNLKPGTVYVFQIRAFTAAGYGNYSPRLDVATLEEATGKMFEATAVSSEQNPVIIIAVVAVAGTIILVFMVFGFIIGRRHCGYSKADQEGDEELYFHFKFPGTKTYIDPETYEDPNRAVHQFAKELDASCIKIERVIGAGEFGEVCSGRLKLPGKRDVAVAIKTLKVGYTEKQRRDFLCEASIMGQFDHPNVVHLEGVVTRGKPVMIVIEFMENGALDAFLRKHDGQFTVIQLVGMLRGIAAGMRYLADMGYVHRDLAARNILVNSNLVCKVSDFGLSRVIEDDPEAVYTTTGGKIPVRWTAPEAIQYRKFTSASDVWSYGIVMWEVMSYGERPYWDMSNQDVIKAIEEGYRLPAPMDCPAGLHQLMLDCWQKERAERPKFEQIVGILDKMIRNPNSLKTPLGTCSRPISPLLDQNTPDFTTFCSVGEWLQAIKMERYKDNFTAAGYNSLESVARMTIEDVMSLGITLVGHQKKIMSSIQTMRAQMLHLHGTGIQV
# How it was run: as §1
# FLT3 = molecular target: T12, FLT3 (Homo sapiens, UniProt P36888)
# T12 construct: host or cells: T7 phage in E. coli host derived from BL21
# How it was run: as §1
# FLT4 = molecular target: T13, FLT4 (Homo sapiens, UniProt P35916)
# T13 construct: host or cells: T7 phage in E. coli host derived from BL21
# How it was run: as §1
# [1] = molecular target: T14, JAK2(JH1domain- catalytic) (Homo sapiens, UniProt O60674)
# T14 construct: JAK2(JH1domain- catalytic); host or cells: T7 phage grown in E. coli host derived from BL21
# T14 sequence (O60674 849-1124 limits assumed): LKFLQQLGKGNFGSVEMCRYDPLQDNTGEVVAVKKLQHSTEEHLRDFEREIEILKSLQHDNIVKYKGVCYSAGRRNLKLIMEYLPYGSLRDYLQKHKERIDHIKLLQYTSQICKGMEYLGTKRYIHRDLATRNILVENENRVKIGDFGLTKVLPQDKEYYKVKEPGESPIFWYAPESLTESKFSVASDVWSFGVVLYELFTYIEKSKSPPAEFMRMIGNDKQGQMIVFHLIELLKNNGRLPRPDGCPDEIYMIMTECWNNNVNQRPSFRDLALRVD
# How it was run: as §1
# JNK3 = molecular target: T15, JNK3 (Homo sapiens, UniProt P53779)
# T15 construct: host or cells: T7 phage grown in E. coli host derived from BL21
# How it was run: as §1
# LTK = molecular target: T16, LTK (Homo sapiens, UniProt P29376)
# T16 construct: host or cells: E. coli host derived from the BL21 strain, infected with T7 phage
# T16 sequence (P29376 17-864): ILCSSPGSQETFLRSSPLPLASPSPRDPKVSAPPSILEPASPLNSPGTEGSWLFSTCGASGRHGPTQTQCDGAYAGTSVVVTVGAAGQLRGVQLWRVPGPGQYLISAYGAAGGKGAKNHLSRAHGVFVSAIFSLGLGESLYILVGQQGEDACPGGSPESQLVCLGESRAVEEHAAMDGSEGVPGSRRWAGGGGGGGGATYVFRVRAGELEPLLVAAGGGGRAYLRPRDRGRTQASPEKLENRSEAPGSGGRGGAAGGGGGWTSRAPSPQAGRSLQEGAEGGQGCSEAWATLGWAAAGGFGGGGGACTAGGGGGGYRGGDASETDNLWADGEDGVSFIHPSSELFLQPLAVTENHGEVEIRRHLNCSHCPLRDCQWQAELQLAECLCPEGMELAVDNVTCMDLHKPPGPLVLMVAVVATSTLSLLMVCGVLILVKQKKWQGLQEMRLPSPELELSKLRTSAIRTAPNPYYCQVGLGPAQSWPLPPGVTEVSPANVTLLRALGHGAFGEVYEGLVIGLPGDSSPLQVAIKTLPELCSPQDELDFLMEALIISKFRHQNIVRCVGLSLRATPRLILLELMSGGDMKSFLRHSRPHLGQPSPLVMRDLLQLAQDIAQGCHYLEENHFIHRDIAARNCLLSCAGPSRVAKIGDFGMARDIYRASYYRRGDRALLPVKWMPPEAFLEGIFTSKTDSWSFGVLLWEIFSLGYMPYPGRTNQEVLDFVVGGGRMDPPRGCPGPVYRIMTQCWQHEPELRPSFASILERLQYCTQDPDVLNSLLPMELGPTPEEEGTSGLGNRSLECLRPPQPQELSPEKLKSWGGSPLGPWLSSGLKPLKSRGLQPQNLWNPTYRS
# How it was run: as §1
# MLK1 = molecular target: T17, MLK1 (Homo sapiens, UniProt P80192)
# T17 construct: host or cells: T7 phage grown in E. coli host derived from BL21
# How it was run: as §1
# MRCKB = molecular target: T18, MRCKB (Homo sapiens, UniProt Q9Y5S2)
# T18 construct: host or cells: T7 phage grown in E. coli host derived from BL21
# How it was run: as §1
# MST3 = molecular target: T19, MST3 (Homo sapiens, UniProt Q9Y6E0)
# T19 construct: host or cells: T7 phage grown in E. coli host derived from BL21
# How it was run: as §1
# NEK1 = molecular target: T20, NEK1 (Homo sapiens, UniProt Q96PY6)
# T20 construct: host or cells: T7 phage grown in E. coli host derived from BL21
# How it was run: as §1
# PHKG1 = molecular target: T21, PHKG1 (Homo sapiens, UniProt Q16816)
# T21 construct: host or cells: E. coli host derived from BL21, infected with T7 phage
# How it was run: as §1
# PYK2 = molecular target: T22, PYK2 (Homo sapiens, UniProt Q14289)
# T22 construct: host or cells: E. coli host derived from BL21, T7 phage display
# How it was run: as §1
# [2] = molecular target: T23, RPS6KA1(Kin.Dom.-2-C-terminal) (Homo sapiens, UniProt Q15418)
# T23 construct: RPS6KA1(Kin.Dom.-2-C-terminal); host or cells: E. coli host derived from BL21, T7 phage display
# How it was run: as §1
# SLK = molecular target: T24, SLK (Homo sapiens, UniProt Q9H2G2)
# T24 construct: host or cells: T7 phage grown in E. coli (BL21-derived)
# How it was run: as §1
# SRMS = molecular target: T25, SRMS (Homo sapiens, UniProt Q9H3Y6)
# T25 construct: host or cells: T7 phage grown in E. coli (BL21-derived)
# T25 sequence (Q9H3Y6 whole entry): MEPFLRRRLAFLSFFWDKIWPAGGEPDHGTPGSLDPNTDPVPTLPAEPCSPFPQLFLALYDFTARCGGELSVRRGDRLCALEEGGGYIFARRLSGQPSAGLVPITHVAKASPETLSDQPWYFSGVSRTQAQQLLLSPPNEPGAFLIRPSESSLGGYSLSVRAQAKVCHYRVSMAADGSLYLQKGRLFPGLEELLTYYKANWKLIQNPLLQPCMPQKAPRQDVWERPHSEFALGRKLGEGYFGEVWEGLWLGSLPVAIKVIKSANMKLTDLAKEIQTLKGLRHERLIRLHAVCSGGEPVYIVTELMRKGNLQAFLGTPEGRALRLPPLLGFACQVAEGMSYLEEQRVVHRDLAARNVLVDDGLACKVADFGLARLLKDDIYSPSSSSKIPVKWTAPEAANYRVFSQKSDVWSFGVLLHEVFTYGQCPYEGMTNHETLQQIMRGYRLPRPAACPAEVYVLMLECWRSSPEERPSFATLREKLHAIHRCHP
# How it was run: as §1
# SRPK1 = molecular target: T26, SRPK1 (Homo sapiens, UniProt Q96SB4)
# T26 construct: host or cells: T7 phage grown in E. coli (BL21-derived)
# How it was run: as §1
# SRPK2 = molecular target: T27, SRPK2 (Homo sapiens, UniProt P78362)
# T27 construct: host or cells: T7 phage grown in E. coli (BL21-derived)
# How it was run: as §1
# SRPK3 = molecular target: T28, SRPK3 (Homo sapiens, UniProt Q9UPE1)
# T28 construct: host or cells: T7 phage grown in E. coli (BL21-derived)
# How it was run: as §1
# STK36 = molecular target: T29, STK36 (Homo sapiens, UniProt Q9NRP7)
# T29 construct: host or cells: T7 phage grown in E. coli (BL21-derived)
# How it was run: as §1
# SgK085 = molecular target: T30, SgK085 (Homo sapiens, UniProt Q86YV6)
# T30 construct: host or cells: T7 phage grown in E. coli (BL21-derived)
# How it was run: as §1
# TRKC = molecular target: T31, TRKC (Homo sapiens, UniProt Q16288)
# T31 construct: host or cells: E. coli host derived from BL21, T7 phage
# How it was run: as §1
# TXK = molecular target: T32, TXK (Homo sapiens, UniProt P42681)
# T32 construct: host or cells: E. coli host derived from BL21, T7 phage
# T32 sequence (P42681 whole entry): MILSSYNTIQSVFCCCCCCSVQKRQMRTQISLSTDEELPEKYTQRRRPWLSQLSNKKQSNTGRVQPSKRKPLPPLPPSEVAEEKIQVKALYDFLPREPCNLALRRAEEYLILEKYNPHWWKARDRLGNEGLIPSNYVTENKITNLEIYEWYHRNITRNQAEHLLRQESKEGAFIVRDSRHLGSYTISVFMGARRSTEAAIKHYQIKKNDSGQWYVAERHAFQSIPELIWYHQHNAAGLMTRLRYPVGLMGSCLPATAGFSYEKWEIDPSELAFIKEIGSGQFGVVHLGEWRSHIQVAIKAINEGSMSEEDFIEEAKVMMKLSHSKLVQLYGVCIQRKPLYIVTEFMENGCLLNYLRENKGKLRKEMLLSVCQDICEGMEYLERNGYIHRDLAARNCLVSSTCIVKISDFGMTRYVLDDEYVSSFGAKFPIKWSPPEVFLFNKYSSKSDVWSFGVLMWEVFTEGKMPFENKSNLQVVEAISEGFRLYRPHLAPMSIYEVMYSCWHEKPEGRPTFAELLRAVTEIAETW
# How it was run: as §1
# ULK2 = molecular target: T33, ULK2 (Homo sapiens, UniProt Q8IYT8)
# T33 construct: host or cells: E. coli host derived from BL21, T7 phage
# How it was run: as §1
smiles,measurement,setting,value
"C#Cc1cccc(Nc2ncnc3cc(OC)c(OCCCN4CCOCC4)cc23)c1 [NRC-2694, N-(3-ethynylphenyl)-7-methoxy-6-[3-(4-morpholinyl)propoxy]-4-quinazolinamine]",remaining binding at 10 µM,ABL1(F317I),48%
same,remaining binding at 10 µM,ABL1(T315I),35%
same,remaining binding at 10 µM,ACVR1,61%
same,remaining binding at 10 µM,ACVR2A,92%
same,remaining binding at 10 µM,AKT2,100%
same,remaining binding at 10 µM,CAMK1G,75%
same,remaining binding at 10 µM,CDK3,91%
same,remaining binding at 10 µM,CSNK1D,25%
same,remaining binding at 10 µM,CSNK1G1,55%
same,remaining binding at 10 µM,DLK,92%
same,remaining binding at 10 µM,EPHA7,70%
same,remaining binding at 10 µM,FLT3,49%
same,remaining binding at 10 µM,FLT4,66%
same,remaining binding at 10 µM,[1],38%
same,remaining binding at 10 µM,JNK3,77%
same,remaining binding at 10 µM,LTK,3.8%
same,remaining binding at 10 µM,MLK1,100%
same,remaining binding at 10 µM,MRCKB,71%
same,remaining binding at 10 µM,MST3,42%
same,remaining binding at 10 µM,NEK1,66%
same,remaining binding at 10 µM,PHKG1,50%
same,remaining binding at 10 µM,PYK2,71%
same,remaining binding at 10 µM,[2],49%
same,remaining binding at 10 µM,SLK,0.3%
same,remaining binding at 10 µM,SRMS,100%
same,remaining binding at 10 µM,SRPK1,40%
same,remaining binding at 10 µM,SRPK2,73%
same,remaining binding at 10 µM,SRPK3,38%
same,remaining binding at 10 µM,STK36,4.6%
same,remaining binding at 10 µM,SgK085,84%
same,remaining binding at 10 µM,TRKC,80%
same,remaining binding at 10 µM,TXK,39%
same,remaining binding at 10 µM,ULK2,39%
